Measured values taken from ChEMBL document CHEMBL4177586, “Small molecule adjuvants that suppress both chromosomal and mcr-1 encoded colistin-resistance and amplify colistin efficacy in polymyxin-susceptible bacteria” (Bioorg Med Chem, 2017).

What was measured:
Klebsiella pneumoniae [1] = assay: Antimicrobial activity against Klebsiella pneumoniae 2210291 expressing mcr1 gene incubated for overnight duration by CLSI based method; format: functional, organism-based
Escherichia coli [2] = assay: Antimicrobial activity against Escherichia coli ATCC 25922 incubated for overnight duration by CLSI based method; format: functional, organism-based
Escherichia coli [3] = assay: Antimicrobial activity against Escherichia coli ATCC 25922 expressing mcr1 gene incubated for overnight duration by CLSI based method; format: functional, organism-based
Acinetobacter baumannii [4] = assay: Antimicrobial activity against Acinetobacter baumannii ATCC 17978 expressing mcr1 gene incubated for overnight duration by CLSI based method; format: functional, organism-based
Klebsiella pneumoniae [5] = assay: Antimicrobial activity against Klebsiella pneumoniae 2210291 incubated for overnight duration by CLSI based method; format: functional, organism-based
Escherichia coli [6] = assay: Antimicrobial activity against Escherichia coli YD626 expressing mcr1 gene incubated for overnight duration by CLSI based method; format: functional, organism-based
Acinetobacter baumannii [7] = assay: Antimicrobial activity against Acinetobacter baumannii ATCC 17978 incubated for overnight duration by CLSI based method; format: functional, organism-based
Acinetobacter baumannii [8] = assay: Antimicrobial activity against Acinetobacter baumannii SM1536 incubated for overnight duration by CLSI based method; format: functional, organism-based
Escherichia coli [9] = assay: Antimicrobial activity against Escherichia coli YD626 incubated for overnight duration by CLSI based method; format: functional, organism-based
Acinetobacter baumannii [10] = assay: Antimicrobial activity against Acinetobacter baumannii SM1536 expressing mcr1 gene incubated for overnight duration by CLSI based method; format: functional, organism-based
Acinetobacter baumannii [11] = assay: Potentiation of colistin-induced antimicrobial activity against Acinetobacter baumannii ATCC 17978 expressing mcr1 gene assessed as reduction in colistin MIC at 60 uM incubated for overnight duration by CLSI based method relative to colistin alone control; format: functional

Row | Compound | MIC (Klebsiella pneumoniae [1]) | MIC (Escherichia coli [2]) | MIC (Escherichia coli [3]) | MIC (Acinetobacter baumannii [4]) | MIC (Klebsiella pneumoniae [5]) | MIC (Escherichia coli [6]) | MIC (Acinetobacter baumannii [7]) | MIC (Acinetobacter baumannii [8]) | MIC (Escherichia coli [9]) | MIC (Acinetobacter baumannii [10]) | fold change (FC) (Acinetobacter baumannii [11])
1 | COLISTIN | 16 µg/mL | 1 µg/mL | 8 µg/mL | 16 µg/mL | 1 µg/mL | 4 µg/mL | 2 µg/mL | 2 µg/mL | 1 µg/mL | 64 µg/mL | 
2 | O=C(NCCc1c[nH]c2ccccc12)c1cc(Cl)c(Cl)[nH]1 |  |  |  |  |  |  |  |  |  |  | 32
